The results in this text go back to patent US6723753B2, “Substituted n-benzyl-n-phenyl aminoalcohol compounds useful for inhibiting cholesteryl ester transfer protein activity” (Pharmacia Corporation, priority 2002, dated 2004).

One may read the IC50 as the concentration that inhibits the measured activity by half.

Bounds are passed on as bounds.

In this test the target is T1, CETP (Homo sapiens, UniProt P11597).
T1 sequence (P11597 18-493): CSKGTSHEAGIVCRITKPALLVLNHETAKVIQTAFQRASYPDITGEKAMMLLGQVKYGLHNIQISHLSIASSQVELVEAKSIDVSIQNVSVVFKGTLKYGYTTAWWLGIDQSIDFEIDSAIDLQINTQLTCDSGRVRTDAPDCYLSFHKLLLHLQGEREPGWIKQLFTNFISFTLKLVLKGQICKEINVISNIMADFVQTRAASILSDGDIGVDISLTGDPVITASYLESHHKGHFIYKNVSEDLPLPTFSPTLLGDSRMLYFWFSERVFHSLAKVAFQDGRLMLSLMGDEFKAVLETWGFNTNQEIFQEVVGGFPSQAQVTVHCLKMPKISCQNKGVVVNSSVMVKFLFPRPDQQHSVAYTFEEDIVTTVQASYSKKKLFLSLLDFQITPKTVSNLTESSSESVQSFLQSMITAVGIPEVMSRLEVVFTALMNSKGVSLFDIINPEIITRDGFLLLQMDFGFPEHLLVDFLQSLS
In words: Assay of CETP Inhibition using Purified Components (Reconstituted Buffer Assay). The class given is biochemical. The arrangement: made in house; host or cells: CHO cells (serum-free conditioned medium). The settings on record: Inhibition of CETP activity in reconstituted buffer assay; transfer of [3H]CE from HDL to LDL; read-out: IC50. The procedure, abridged: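 Purified human recombinant CETP from transfected CHO cells was incubated with [^3H]CE-labeled HDL donor and LDL acceptor in Tris pH 7.4/NaCl/EDTA/1% BSA buffer for 2 h at 37 °C. LDL was then precipitated with dextran sulfate/MgCl2, filtered, and counted by liquid scintillation to give IC50 for CE transfer.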

In the case of `OC(c1ccccc1)c1cccc(N(Cc2cccc(OC(F)(F)C(F)F)c2)CC(O)C(F)(F)F)c1` (stereo not drawn) [Example 583, α-Phenyl-3-[[[3-(1,1,2,2-tetrafluoroethoxy)phenyl]methyl]](3,3,3-trifluoro-2-hydroxypropyl)benzenemethanol], the IC50 was 6.4 µM.

`OC(CN(Cc1ccc(Oc2ccccc2)cc1)c1cccc(OC(F)(F)F)c1)C(F)(F)F` (centres unmarked) [Example 152]: the IC50 is 8 µM.

Consider `CC(C)(C)C(=O)COc1cccc(N(Cc2cccc(OC(F)(F)C(F)F)c2)CC(O)C(F)(F)F)c1` (centres unmarked) [Example 513], for which the IC50 is 2.1 µM.

For the compound `OC(CN(Cc1ccccn1)c1cccc(OC(F)(F)F)c1)C(F)(F)F` (centres unmarked) [Example 363], the IC50 stood at 40 µM.

As for `OC(CN(Cc1ccc(OC(F)(F)F)cc1)c1cc(F)cc(F)c1)C(F)(F)F` (centres unmarked) [Example 68], the IC50 came to 15 µM.

In the case of `COc1ccc(CN(CC(O)C(F)(F)F)c2cccc(OC(F)(F)F)c2)cc1` (centres unmarked) [Example 347], the IC50 stood at 15 µM.

Consider `OC(CN(Cc1cccc(OC(F)(F)C(F)F)c1)c1cccc(-c2ccc(Cl)cc2)c1)C(F)(F)F` (centres unmarked) [Example 565], for which the IC50 was found to be 1.5 µM.

Regarding `OC(CN(Cc1cccc(OC(F)(F)C(F)F)c1)c1cccc(OCc2c(F)cccc2F)c1)C(F)(F)F` (centres unmarked) [Example 394], the IC50 is 3.1 µM.

For the compound `Nc1ccc(COc2cccc(N(Cc3cccc(OC(F)(F)C(F)F)c3)CC(O)C(F)(F)F)c2)cc1` (centres unmarked) [Example 434, 3-[[3-[(4-aminophenyl)methoxy]phenyl][[3-(1,1,2,2-tetrafluoro-ethoxy)phenyl]methyl]amino]-1,1,1-trifluoro-2-propanol], the IC50 is > 50 µM.

`CC(C)CNc1cccc(N(Cc2cccc(OC(F)(F)C(F)F)c2)CC(O)C(F)(F)F)c1` (centres unmarked) [Example 541]: the IC50 was determined as 0.97 µM.

With `N#Cc1cccc(COc2cccc(N(Cc3cccc(OC(F)(F)C(F)F)c3)CC(O)C(F)(F)F)c2)c1` (centres unmarked) [Example 383], the IC50 is 2.3 µM.

On to `Cc1ccc(CN(CC(O)C(F)(F)F)c2cccc(Oc3ccccc3)c2)cc1-c1ccco1` (centres unmarked) [compound 594], for which the IC50 is 4.2 µM.

For the compound `OC(CN(Cc1cccc(OC(F)(F)F)c1)c1cccc(Cl)c1)C(F)(F)F` (centres unmarked) [Example 41], the IC50 was determined as 12 µM.

For `OC(CN(Cc1cccc(OC(F)(F)F)c1)c1nc(Cl)nc(Oc2ccc(F)cc2)n1)C(F)(F)F` (centres unmarked) [Example 632, N-[2-chloro-6-(p-fluorophenoxy)-1,3,5-triazin-4-yl]-3-[[[3-(trifluoromethoxy)phenyl]methyl]amino]-1,1,1-trifluoro-2-propanol], the half-maximal inhibitory concentration (IC50) amounted to 6.8 µM.

On to `OC(CN(Cc1ccc(F)cc1)Cc1cccc(C(F)(F)F)c1)C(F)(F)F` (centres unmarked) [compound 191], for which the IC50 is > 100 µM.

Regarding `OC(CN(Cc1cccc(OC(F)(F)C(F)F)c1)c1cccc(-c2ccccn2)c1)C(F)(F)F` (centres unmarked) [Example 451, 3-[[3-(2-pyridinyl)phenyl][[3-(1,1,2,2-tetrafluoroethoxy)phenyl]methyl]amino]-1,1,1-trifluoro-2-propanol], the IC50 was determined as 13 µM.

With `CCOc1ccc(Oc2cccc(N(Cc3cccc(OC(F)(F)C(F)F)c3)CC(O)C(F)(F)F)c2)cc1` (centres unmarked) [Example 262], the IC50 was found to be 3.7 µM.

Turning to `Cc1ccc(CN(CC(O)C(F)(F)F)c2ccccc2C(F)(F)F)cc1` (centres unmarked) [Example 673], the IC50 is > 100 µM.

For `OC(CN(Cc1cccc(OC(F)(F)C(F)F)c1)c1cccc(S)c1)C(F)(F)F` (centres unmarked) [473B], the IC50 worked out at 42 µM.

On to `N#Cc1ccccc1-c1ccc(CN(CC(O)C(F)(F)F)c2cccc(OC(F)(F)F)c2)cc1` (centres unmarked) [Example 324], for which the IC50 worked out at 20 µM.

Take `OC(CN(Cc1cccc(OC(F)(F)C(F)F)c1)c1cccc(OCc2c(F)c(F)c(C(F)(F)F)c(F)c2F)c1)C(F)(F)F` (centres unmarked) [Example 380]: the IC50 worked out at 11 µM.

`CS(=O)(=O)c1ccc(Sc2cccc(N(Cc3cccc(OC(F)(F)C(F)F)c3)CC(O)C(F)(F)F)c2)cc1` (centres unmarked) [Example 479]: the IC50 is > 50 µM.

Take `CON(C)C(=O)c1cccc(CN(CC(O)C(F)(F)F)c2cccc(Oc3ccccc3)c2)c1` (centres unmarked) [620A]: the IC50 worked out at 24.6 µM.

Regarding `O=C1c2ccccc2C(=O)c2cc(CN(CC(O)C(F)(F)F)c3cccc(OC(F)(F)F)c3)ccc21` (centres unmarked) [Example 342], the IC50 was 70 µM.

With `OC(CN(Cc1cccc(OC(F)(F)C(F)F)c1)c1cccc(Oc2cncnc2)c1)C(F)(F)F` (centres unmarked) [Example 449], the IC50 came to 3.9 µM.

In the case of `Oc1cccc(N(Cc2cccc(OC(F)(F)C(F)F)c2)CC(O)C(F)(F)F)c1` (centres unmarked) [Example 371, 3-[[[3-(1,1,2,2-tetrafluoroethoxy)phenyl]methyl](3,3,3-trifluoro-2-hydroxypropyl)amino]phenol], the IC50 was found to be 3.9 µM.

As for `COC(=O)c1ccc(CN(CC(O)C(F)(F)F)c2cccc(OC(F)(F)F)c2)cc1` (centres unmarked) [Example 341], the IC50 is > 100 µM.

Take `OC(CN(Cc1cccc(OC(F)(F)F)c1)c1ccc2c(c1)OCCCO2)C(F)(F)F` (centres unmarked) [Example 139]: the IC50 was 8 µM.

Turning to `Oc1ccc(O)c(CN(CC(O)C(F)(F)F)c2cccc(OC(F)(F)F)c2)c1` (centres unmarked) [Example 358], the IC50 was > 100 µM.

For the compound `OC(CN(Cc1cccc(C(F)(F)F)c1)c1ccc(-c2ccccc2)cc1)C(F)(F)F` (centres unmarked) [Example 689], the IC50 was determined as 5 µM.

Take `CC(C)CCc1cccc(CN(CC(O)C(F)(F)F)c2cccc(Oc3ccccc3)c2)c1` (centres unmarked) [Example 597]: the IC50 amounted to 2 µM.

For `Cc1ccc(CN(CC(O)C(F)(F)F)c2ccc(C)cc2)cc1` (centres unmarked) [Example 8], the IC50 is > 100 µM.

Regarding `CC(C)(C)[Si](C)(C)OC(CN(Cc1cccc(OC(F)(F)C(F)F)c1)c1cccc(Br)c1)C(F)(F)F` (centres unmarked) [Example 220, N-(3-bromophenyl)-N-[2-[[(1,1-dimethylethyl)dimethylsilyl]oxy]-3,3,3-trifluoropropyl]-3-(1,1,2,2-tetrafluoroethoxy)-benzenemethanamine], the IC50 was 18 µM.

On to `N#Cc1cccc(N(Cc2cccc(OC(F)(F)F)c2)CC(O)C(F)(F)F)c1` (centres unmarked) [Example 162], for which the IC50 was 7 µM.

As to `OC(CN(Cc1ccccc1)c1ccc(Cl)cc1)C(F)(F)F` (centres unmarked) [Example 7], the IC50 is > 100 µM.

As for `OC(CN(Cc1cccc(Cl)c1)Cc1cccc(C(F)(F)F)c1)C(F)(F)F` (centres unmarked) [compound 185], the IC50 was found to be 15 µM.

Consider `Oc1cc(O)cc(CN(CC(O)C(F)(F)F)c2cccc(OC(F)(F)F)c2)c1` (centres unmarked) [Example 360], for which the IC50 was > 100 µM.

Consider `CCOC(=O)c1ccc(Nc2cccc(N(Cc3cccc(OC(F)(F)C(F)F)c3)CC(O)C(F)(F)F)c2)cc1` (centres unmarked) [Example 298], for which the IC50 is 24 µM.

Take `OC(CN(Cc1cccc(OC(F)(F)C(F)F)c1)c1cccc(Oc2ccc3[nH]ccc3c2)c1)C(F)(F)F` (centres unmarked) [Example 288]: the IC50 is 12 µM.

As for `OC(CN(Cc1cccc(OC(F)(F)C(F)F)c1)c1cccc(OCc2ccc(F)c(C(F)(F)F)c2)c1)C(F)(F)F` (centres unmarked) [Example 412], the IC50 stood at 0.71 µM.

Turning to `OC(CN(CC=Cc1ccccc1)c1cccc(OC(F)(F)F)c1)C(F)(F)F` (centres unmarked) [Example 352], the IC50 is 35 µM.

As to `COc1ccc(OC)c(CN(CC(O)C(F)(F)F)c2cccc(OC(F)(F)F)c2)c1` (centres unmarked) [Example 355], the IC50 was 75 µM.

With `N#Cc1ccc(-c2ccc(N(Cc3cccc(OC(F)(F)F)c3)CC(O)C(F)(F)F)cc2)cc1` (centres unmarked) [Example 167], the IC50 was determined as 2 µM.

On to `O=[N+]([O-])c1cccc(CN(CC(O)C(F)(F)F)c2cccc(Oc3ccccc3)c2)c1` (centres unmarked) [Example 113], for which the IC50 was 20 µM.
